assay: CHI Log D procedure; assay type: physicochemical; settings: pH 7.4

| Compound | CHI Log D |
| --- | --- |
| CC(=O)N[C@@H](Cc1ccccc1)C(=O)N[C@@H](CC(=O)O)C(=O)N[C@@H](C)C(=O)N[C@]1(C)CCCCCCC=CCOC(=O)N2CC[C@@](C(=O)N[C@@H](Cc3ccccc3)C(=O)N[C@@H](Cc3c[nH]c4ccccc34)C(=O)N[C@@H](CCC(N)=O)C(N)=O)(C2)NC(=O)[C@H](C(C)C)NC(=O)[C@H](Cc2ccccc2)NC(=O)[C@H](C)NC(=O)[C@H](C)NC(=O)[C@H](Cc2ccc(C(=O)O)cc2)NC(=O)[C@H](CC(=O)O)NC1=O (single isomer, unassigned) [I-8, Ac-Phe-Asp-Ala-R8-Asp-4COOHF-Ala-Ala-Phe-Val-PyrS-Phe-Trp-Gln-NH2] | 1.349 |
| CC(=O)NC(C)(C)C(=O)N[C@@H](CC(=O)O)C(=O)N[C@@H](C)C(=O)N[C@]1(C)CCCCCCC=CCOC(=O)N2CC[C@@](C(=O)N[C@@H](Cc3ccccc3)C(=O)N[C@@H](Cc3c[nH]c4ccccc34)C(=O)NC(C)(C)C(N)=O)(C2)NC(=O)[C@H](C(C)C)NC(=O)[C@H](Cc2ccccc2)NC(=O)[C@H](C)NC(=O)[C@H](C)NC(=O)[C@H](CCC(=O)O)NC(=O)[C@H](CC(=O)O)NC1=O [I-159, Ac-Aib-Asp-Ala-R8-Asp-Glu-Ala-Ala-Phe-Val-PyrS-Phe-Trp-Aib-NH2] | 1.452 |
| CC(=O)N[C@@H](Cc1ccccc1)C(=O)N[C@@H](CC(=O)O)C(=O)N[C@@H](C)C(=O)N[C@]1(C)CCCCCCC=CCOC(=O)N2CC[C@@](C(=O)N[C@@H](Cc3ccccc3)C(=O)N[C@@H](Cc3c[nH]c4ccccc34)C(=O)N[C@@H](CCC(N)=O)C(N)=O)(C2)NC(=O)[C@H](C(C)C)NC(=O)[C@H](Cc2ccccc2)NC(=O)[C@H](CCC(=O)O)NC(=O)[C@H](C)NC(=O)[C@H](CC(=O)O)NC(=O)[C@H](CC(=O)O)NC1=O (single isomer, unassigned) [I-22, Ac-Phe-Asp-Ala-R8-Asp-Asp-Ala-Glu-Phe-Val-PyrS-Phe-Trp-Gln-NH2] | 0.911 |
| CC(=O)N[C@@H](Cc1ccccc1)C(=O)N[C@@H](CC(=O)O)C(=O)N[C@@H](C)C(=O)N[C@]1(C)CCCCCCC=CCOC(=O)N2CC[C@@](C(=O)N[C@@H](Cc3ccccc3)C(=O)N[C@@H](Cc3c[nH]c4ccccc34)C(=O)N[C@@H](CCC(N)=O)C(N)=O)(C2)NC(=O)[C@H](C(C)C)NC(=O)[C@H](Cc2ccccc2)NC(=O)[C@H](C)NC(=O)[C@H](C)NC(=O)[C@@](C)(Cc2ccccc2)NC(=O)[C@H](CC(=O)O)NC1=O (single isomer, unassigned) [I-57, Ac-Phe-Asp-Ala-R8-Asp-aMeDF-Ala-Ala-Phe-Val-PyrS-Phe-Trp-Gln-NH2] | 2.152 |
| CC(=O)N[C@@H](Cc1ccccc1)C(=O)N[C@@H](CC(=O)O)C(=O)N[C@@H](C)C(=O)N[C@]1(C)CCCCCCC=CCOC(=O)N2CC[C@@](C(=O)N[C@@H](Cc3ccccc3C(N)=O)C(=O)N[C@@H](Cc3c[nH]c4ccccc34)C(=O)N[C@@H](CCC(N)=O)C(N)=O)(C2)NC(=O)[C@H](C(C)C)NC(=O)[C@H](Cc2ccccc2)NC(=O)[C@H](C)NC(=O)[C@H](C)NC(=O)[C@H](CC(=O)O)NC(=O)[C@H](CC(=O)O)NC1=O (single isomer, unassigned) [I-106, Ac-Phe-Asp-Ala-R8-Asp-Asp-Ala-Ala-Phe-Val-PyrS-2CBMF-Trp-Gln-NH2] | 1.038 |
| CCCC[C@@H]1NC(=O)[C@H](CC(=O)O)NC(=O)C2(CCCC=CCCCCCC[C@@](C)(C(=O)N[C@@H](Cc3ccccc3)C(=O)N[C@@H](Cc3c[nH]c4ccccc34)C(=O)N[C@@H](CCC(N)=O)C(N)=O)NC(=O)[C@H](C(C)C)NC(=O)[C@H](Cc3ccccc3)NC(=O)[C@H](C)NC(=O)[C@H](C)NC1=O)CCCC=CC[C@]1(CCCN1C(C)=O)C(=O)N[C@@H](CC(=O)O)C(=O)N[C@@H](C)C(=O)N2 (single isomer, unassigned) [I-139, Ac-PL3-Asp-Ala-B5-Asp-nLeu-Ala-Ala-Phe-Val-S8-Phe-Trp-Gln-NH2] | 2.834 |
| CC(=O)N[C@@H](Cc1ccccc1)C(=O)N[C@@H](CC(=O)O)C(=O)N[C@@H](C)C(=O)N[C@]1(C)CCCCCCC=CCOC(=O)N2CC[C@@](C(=O)N[C@@H](Cc3ccccc3)C(=O)N[C@@H](Cc3c[nH]c4ccccc34)C(=O)N[C@@H](CCC(N)=O)C(N)=O)(C2)NC(=O)[C@H](C(C)C)NC(=O)[C@H](Cc2ccccc2)NC(=O)[C@H](C)NC(=O)[C@H](C)NC(=O)[C@H](CCC(=O)O)NC(=O)[C@H](CC(=O)O)NC1=O [I-4, Ac-Phe-Asp-Ala-R8-Asp-Glu-Ala-Ala-Phe-Val-PyrS-Phe-Trp-Gln-NH2] | 1.353 |
| CC(=O)N[C@@H](Cc1ccccc1)C(=O)N[C@@H](CC(=O)O)C(=O)N[C@@H](C)C(=O)N[C@]1(C)CCCCCCC=CCOC(=O)N2CC[C@@](C(=O)N[C@@H](Cc3ccccc3)C(=O)N[C@@H](Cc3c[nH]c4ccccc34)C(=O)N[C@@H](CCC(N)=O)C(N)=O)(C2)NC(=O)[C@H](C(C)C)NC(=O)[C@H](Cc2ccccc2)NC(=O)[C@H](C)NC(=O)[C@H](C)NC(=O)[C@H](Cc2ccc(-c3ccccc3)cc2)NC(=O)[C@H](CC(=O)O)NC1=O (single isomer, unassigned) [I-12, Ac-Phe-Asp-Ala-R8-Asp-Bip-Ala-Ala-Phe-Val-PyrS-Phe-Trp-Gln-NH2] | 2.247 |
| CC(=O)N[C@@H](Cc1ccccc1)C(=O)N[C@@H](CC(=O)O)C(=O)N[C@@H](C)C(=O)N[C@]1(C)CCCCCCC=CCOC(=O)N2CC[C@@](C(=O)N[C@@H](Cc3ccccc3)C(=O)N[C@@H](Cc3c[nH]c4ccccc34)C(=O)N[C@@H](CCC(N)=O)C(N)=O)(C2)NC(=O)[C@H](C(C)C)NC(=O)[C@H](CCc2ccc(O)cc2)NC(=O)[C@H](C)NC(=O)[C@H](C)NC(=O)[C@H](CC(=O)O)NC(=O)[C@H](CC(=O)O)NC1=O [I-120, Ac-Phe-Asp-Ala-R8-Asp-Asp-Ala-Ala-hTyr-Val-PyrS-Phe-Trp-Gln-NH2] | 1.243 |
| CC(=O)N[C@@H](Cc1ccccc1)C(=O)N[C@@H](CC(=O)O)C(=O)N[C@@H](C)C(=O)N[C@]1(C)CCCCCCC=CCOC(=O)N2CC[C@@](C(=O)N[C@@H](Cc3ccccc3)C(=O)N[C@@H](Cc3c[nH]c4ccccc34)C(=O)N[C@@H](CCC(N)=O)C(N)=O)(C2)NC(=O)[C@H](C(C)C)NC(=O)[C@H](Cc2ccccc2)NC(=O)[C@H](CC(=O)O)NC(=O)[C@H](C)NC(=O)[C@H](CC(=O)O)NC(=O)[C@H](CC(=O)O)NC1=O (single isomer, unassigned) [I-20, Ac-Phe-Asp-Ala-R8-Asp-Asp-Ala-Asp-Phe-Val-PyrS-Phe-Trp-Gln-NH2] | 0.935 |

same assay, conditions: pH 7.4, CHI Log D

| Compound | chromatographic logD | logD |
| --- | --- | --- |
| CC(=O)N1CCC[C@]12CC=CCCCC1(CCCC=CCCCCCC[C@@](C)(C(=O)N[C@@H](Cc3ccccc3)C(=O)N[C@@H](Cc3c[nH]c4ccccc34)C(=O)N[C@@H](CCC(N)=O)C(N)=O)NC(=O)[C@H](C(C)C)NC(=O)[C@H](Cc3ccccc3)NC(=O)[C@H](C)NC(=O)[C@H](C)NC(=O)[C@H](CCC(=O)O)NC(=O)[C@H](CC(=O)O)NC1=O)NC(=O)[C@H](C)NC(=O)[C@H](Cc1c[nH]cn1)NC2=O (single isomer, unassigned) [I-314, Ac-PL3-His-Ala-B5-Asp-Glu-Ala-Ala-Phe-Val-S8-Phe-Trp-Gln-NH2] | 2.34 | – |
| CC(=O)N[C@@H](Cc1ccccc1)C(=O)N[C@@H](CC(=O)O)C(=O)N[C@@H](C)C(=O)N[C@]1(C)CCCCCCC=CCOC(=O)N2CC[C@@](C(=O)N[C@@H](Cc3cccnc3)C(=O)N[C@@H](Cc3c[nH]c4ccccc34)C(=O)N[C@@H](CCC(N)=O)C(N)=O)(C2)NC(=O)[C@H](C(C)C)NC(=O)[C@H](Cc2ccccc2)NC(=O)[C@H](C)NC(=O)[C@H](C)NC(=O)[C@H](CC(=O)O)NC(=O)[C@H](CC(=O)O)NC1=O (single isomer, unassigned) [I-82, Ac-Phe-Asp-Ala-R8-Asp-Asp-Ala-Ala-Phe-Val-PyrS-3PyrA-Trp-Gln-NH2] | 1 | – |
| CC(=O)N1CCC[C@]12CC=CCCCC1(CCCC=CCCCCCC[C@@](C)(C(=O)N[C@@H](Cc3ccccc3)C(=O)N[C@@H](Cc3c[nH]c4ccccc34)C(=O)N[C@@H](CCC(N)=O)C(N)=O)NC(=O)[C@H](C(C)C)NC(=O)[C@H](Cc3ccccc3)NC(=O)[C@H](C)NC(=O)[C@H](C)NC(=O)[C@H](CCC(=O)O)NC(=O)[C@H](Cc3ccccn3)NC1=O)NC(=O)[C@H](C)NC(=O)[C@H](CC(=O)O)NC2=O (stereo partly drawn) [I-230, Ac-PL3-Asp-Ala-B5-2pyrA-Glu-Ala-Ala-Phe-Val-S8-Phe-Trp-Gln-NH2] | 2.98 | – |
| CC(=O)N[C@@H](Cc1ccccc1)C(=O)N[C@@H](CC(=O)O)C(=O)N[C@@H](C)C(=O)N[C@]1(C)CCCCC=CCOC(=O)N(C)CCC[C@@](C)(C(=O)N[C@@H](Cc2ccccc2)C(=O)N[C@@H](Cc2c[nH]c3ccccc23)C(=O)N[C@@H](CCC(N)=O)C(N)=O)NC(=O)[C@H](C(C)C)NC(=O)[C@H](Cc2ccccc2)NC(=O)[C@H](C)NC(=O)[C@H](C)NC(=O)[C@H](CC(=O)O)NC(=O)[C@H](CC(=O)O)NC1=O [I-26, Ac-Phe-Asp-Ala-R6-Asp-Asp-Ala-Ala-Phe-Val-SeN-Phe-Trp-Gln-NH2] | 1.25 | – |
| CC(=O)N1CCC[C@]12CC=CCCCC1(CCCC=CCCCCCC[C@@](C)(C(=O)N[C@@H](Cc3ccsc3)C(=O)N[C@@H](Cc3csc4ccccc34)C(=O)N[C@@H](CCC(N)=O)C(=O)N[C@H](C)C(=O)N[C@@H](C)C(=O)N[C@@H](C)C(N)=O)NC(=O)[C@H](CC(N)=O)NC(=O)[C@H](Cc3ccccc3)NC(=O)[C@H](C)NC(=O)[C@H](C)NC(=O)[C@H](CC(=O)O)NC(=O)[C@H](CC(=O)O)NC1=O)NC(=O)[C@H](CC(C)(C)C)NC(=O)[C@H](CC(=O)O)NC2=O (stereo partly drawn) [I-875, Ac-PL3-Asp-Npg-B5-Asp-Asp-Ala-Ala-Phe-Asn-S8-3Thi-BztA-Gln-dAla-Ala] | – | 2.21 |
| CCCC[C@@H]1NC(=O)[C@H](CC(=O)O)NC(=O)C2(CCCC=CCCCCCC[C@@](C)(C(=O)N[C@@H](Cc3ccccc3)C(=O)N[C@@H](Cc3c[nH]c4ccccc34)C(=O)N[C@@H](CCC(N)=O)C(N)=O)NC(=O)[C@H](C(C)C)NC(=O)[C@H](Cc3ccccc3)NC(=O)[C@H](C)NC(=O)[C@H](C)NC1=O)CCCC=CC[C@]1(CCCN1C(C)=O)C(=O)N[C@@H](CC(=O)O)C(=O)N[C@@H](C)C(=O)N2 (single isomer, unassigned) [I-138, Ac-PL3-Asp-Ala-B5-Asp-nLeu-Ala-Ala-Phe-Val-S8-Phe-Trp-Gln-NH2] | 1.81 | – |

Source: patent US20240116985A1, “STAPLED PEPTIDES AND METHODS THEREOF” (priority 2020, published 2024)
